Assay results: article PMC6713189, “Dual and selective inhibitors of pteridine reductase 1 (PTR1) and dihydrofolate reductase-thymidylate synthase (DHFR-TS) from Leishmania chagasi” (Journal of Enzyme Inhibition and Medicinal Chemistry, 2019)
Where “and” joins values, the source holds several entries; their conditions need not be identical. Identical values can stand only once. Like-named read-outs stand apart in the source and are kept apart here. Blank lines part the entries; values can stand above or below the molecule they belong to.

Tests used:
[1] = target: T1, LcPTR1 (Leishmania infantum, UniProt A4I067); test: LcPTR1 inhibition assay (single concentration and IC50, NADPH consumption at 340 nm); assay type: biochemical; details: for Ki: obtained from Cheng-Prussov equation for competitive inhibitors; for Selectivity Ki LcPTR1/ Ki LcDHFR-TS: ratio of Ki values
T1 sequence (A4I067 entry or part of it): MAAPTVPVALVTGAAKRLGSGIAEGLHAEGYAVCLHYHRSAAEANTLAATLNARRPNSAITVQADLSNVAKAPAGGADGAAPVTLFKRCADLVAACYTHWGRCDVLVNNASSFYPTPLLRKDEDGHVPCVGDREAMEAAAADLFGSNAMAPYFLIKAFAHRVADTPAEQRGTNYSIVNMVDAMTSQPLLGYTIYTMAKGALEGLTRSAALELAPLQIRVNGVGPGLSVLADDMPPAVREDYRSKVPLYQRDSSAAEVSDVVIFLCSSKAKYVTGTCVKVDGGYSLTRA
Procedure: (§1) Kinetic measurements were performed according to the protocol described[32] via spectrophotometer (Shimadzu UV-1800) at pH 4.7 (20 mM sodium acetate). NADPH consumption was monitored spectrophotometrically (340 nm) at constant temperature (30 °C). The variation of the absorbance monitored for 60 s was used to calculate the initial rate of the reaction by linear regression.
(§2) Comparison of the enzymatic activities in the absence and presence of the compounds (50 μM), which were dissolved in DMSO (5% v/v final concentration), was employed to calculate the percent inhibition (Equation (1)) (1) % Inhibition=100 − (Vi/Vc)×100 where Vi is the initial velocity in the presence of the inhibitor and Vc is the reaction rate in the presence of DMSO (5% (v/v)).
(§3) The results of this analysis were plotted in double-reciprocal graphs for visual analysis purposes only.

[2] = target: T2, LcDHFR-TS (Leishmania infantum, UniProt Q8MQV3); test: LcDHFR-TS inhibition assay (single concentration and IC50, NADPH consumption at 340 nm); assay type: biochemical; details: for IC50: DHF 5.0 µM, NADPH 5.0 µM, pH 7.0, >50 from single-concentration assay; for Ki: obtained from Cheng-Prussov equation for competitive inhibitors
T2 sequence (Q8MQV3 entry or part of it): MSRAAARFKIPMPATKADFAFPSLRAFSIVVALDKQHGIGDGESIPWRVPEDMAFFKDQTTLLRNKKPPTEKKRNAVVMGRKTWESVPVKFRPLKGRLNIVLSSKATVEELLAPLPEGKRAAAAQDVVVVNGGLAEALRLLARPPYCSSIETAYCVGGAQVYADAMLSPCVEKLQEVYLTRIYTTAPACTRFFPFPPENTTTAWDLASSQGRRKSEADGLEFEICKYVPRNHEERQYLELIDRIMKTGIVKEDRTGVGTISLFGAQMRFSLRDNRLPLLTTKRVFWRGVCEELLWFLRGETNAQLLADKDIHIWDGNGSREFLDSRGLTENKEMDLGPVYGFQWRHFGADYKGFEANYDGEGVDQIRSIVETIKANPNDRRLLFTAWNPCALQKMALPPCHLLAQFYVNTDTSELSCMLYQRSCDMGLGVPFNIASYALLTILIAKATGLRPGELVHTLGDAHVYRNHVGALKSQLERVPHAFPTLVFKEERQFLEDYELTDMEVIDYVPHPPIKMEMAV
Procedure: (§4) Kinetic measurements were carried out using a standard assay, at pH 7.0 (50 mM sodium phosphate). Briefly, NADPH consumption was monitored spectrophotometrically ([…]) (Shimadzu® UV-1800, Columbia MD, USA) at constant temperature (25 °C) and the absorbance variation within the first 30 s was employed to calculate the initial rate of reaction, by linear regression of the raw data.
as §2, §3

[3] = target: T2, LcDHFR-TS; test: Determination of the inhibition mechanism, LcDHFR-TS; assay type: biochemical
Description: as §3

[4] = target: T1, LcPTR1; test: Determination of the inhibition mechanism, LcPTR1; assay type: biochemical
Description: as §3

[5] = test system: L. tropica PTR1; set-up: method as in PMID 10415124; details: cited from earlier work
[6] = test system: LdPTR1; set-up: method as in PMID 21115787; details: double-reciprocal plot, His-tag fused protein; read-out: Km app for LdPTR1; cited from earlier work
[7] = test system: L. tarantoleae PTR1; set-up: method as in PMID 10415124; details: read-out: Km app for L. tarantoleae PTR1; cited from earlier work
[8] = test system: L. major PTR1; details: cited from earlier work
[9] = target: T2, LcDHFR-TS; test: LcDHFR-TS apparent Km determination; assay type: biochemical, Leishmania chagasi
Procedure: as §4
The effect of the pH (5.0–8.0) over enzymatic activity was investigated with 0.2 μM of LcDHFR-TS and saturating NADPH and DHF concentrations (100 μM) (50 mM citrate buffer was used for pH 5.0 activity assay. 50 mM sodium phosphate buffer was used for pH range 6.0 to 8.0 activity assay). […] All the measurements were carried out in triplicate and the apparent Km values for the cofactor and substrate were determined under a pseudo first-order kinetics assumption using least-squares non-linear regression method, as available in the GraphPad Prism version 5.0 for Windows (GraphPad® Software, San Diego, CA, USA, www.graphpad.com).

[10] = test system: DHFR-TS; details: read-out: Km app for L. tropica DHFR-TS; cited from earlier work
[11] = test system: DHFR-TS; details: read-out: Km app for L. major DHFR-TS; cited from earlier work
[12] = target: T1, LcPTR1; assay type: biochemical, Leishmania chagasi; details: restated without unit; read-out: Km app for LcPTR1
Procedure: as §1

[13] = pH 7.0, 25 °C, other substrate saturating
[14] = pH 7.0, 25 °C, other substrate saturating, read-out: Km app for LcDHFR-TS
[15] = restated without unit, read-out: Km app for LcDHFR

Molecule: Nc1nc(N)c(Cc2ccccc2)c(CC2CCCCC2)n1 [Compound 2]
- IC50 [1]: 4100 nM
- Ki [1]: 2050 nM
- inhibition at 50 µM ([1]; pH 4.7): 40 ± 1%
- Selectivity Ki LcPTR1/ Ki LcDHFR-TS [1]: 0.68
- IC50 [2]: 18000 nM
- Ki [2]: 3000 nM
- inhibition at 50 µM ([2]; pH 7): 20 ± 2.4%

Molecule: Nc1nc(N)c(Cc2ccccc2)c(CCCc2ccccc2)n1 [Compound 1]
- IC50 [1]: 3000 nM
- Ki [1]: 1500 nM
- inhibition at 50 µM ([1]; pH 4.7): 90 ± 1%
- Selectivity Ki LcPTR1/ Ki LcDHFR-TS [1]: 5.4 and 5.45
- IC50 [2]: 1650 nM
- Ki [2]: 280 nM
- inhibition at 50 µM ([2]; pH 7): 100 ± 1.17%
- NADPH Vmax app in presence of inhibitor ([3]; compound 1 at 2 µM): 1.0 ± 0.1 nmol/min/mL
- NADPH Vmax app in presence of inhibitor ([3]; compound 1 at 5 µM): 0.5 ± 0.05 nmol/min/mL
- DHF Vmax app in presence of inhibitor ([3]; not affected by increasing concentrations of compound 1): 1.9 ± 0.1 nmol/min/mL
- mechanism of inhibition related to cofactor NADPH ([3]; saturating DHF 12.5 µM, varying NADPH): noncompetitive
- mechanism of inhibition related to substrate DHF ([3]; saturating NADPH 50 µM, varying DHF): competitive
- mechanism of inhibition with respect to biopterin [4]: competitive
- mechanism of inhibition with respect to the cofactor NADPH [4]: uncompetitive

Molecule: biopterin
- Km [5]: 3.5 µM
- Km [6]: 5.8 µM
- Km [7]: 3.5 µM
- Km [8]: 4.6 µM

Molecule: NC(=O)C1=CN([C@@H]2O[C@H](COP(=O)(O)OP(=O)(O)OC[C@H]3O[C@@H](n4cnc5c(N)ncnc54)[C@H](OP(=O)(O)O)[C@@H]3O)[C@@H](O)[C@H]2O)C=CC1 [NADPH]
- Km [5]: 19 µM
- Km [6]: 18.5 µM
- Vmax app for LcDHFR-TS [9, 13]: 1.6 ± 0.1 nmol/min/mL
- Km [9, 14]: 2.3 ± 0.5 µM
- Km [9, 15]: 2.3 µM
- Km [10]: 2.7 µM
- Km [11]: 0.45 µM
- Km [12]: 37.5 µM
- Km [7]: 19 µM
- Km [8]: 6.7 µM

Molecule: Nc1nc(N)c2ccccc2n1 [Compound 5]
- IC50 [1]: 940 nM
- Ki [1]: 470 nM
- inhibition at 50 µM ([1]; pH 4.7): 98 ± 0.8%
- selectivity index ([1]; selective LcPTR1 inhibitor, LcPTR1 over LcDHFR-TS (abstract)): 20
- IC50 [2]: > 50000 nM
- Ki [2]: > 8330 nM
- inhibition at 50 µM ([2]; pH 7): 20 ± 2.4%
- mechanism of inhibition with respect to biopterin [4]: competitive
- mechanism of inhibition with respect to the cofactor NADPH [4]: uncompetitive

Molecule: COc1ccccc1CCc1nc(N)nc(N)c1Cc1ccccc1 [Compound 3]
- IC50 [1]: 4600 nM
- Ki [1]: 2300 nM
- LcPTR1 inhibition ([1]; pH 4.7): active
- Selectivity Ki LcPTR1/ Ki LcDHFR-TS [1]: 3.3 and 3.29
- IC50 [2]: 4200 nM
- Ki [2]: 700 nM
- LcDHFR-TS inhibition ([2]; pH 7): active

Molecule: Nc1nc(=O)c2c([nH]1)NCC(CNc1ccc(C(=O)N[C@@H](CCC(=O)O)C(=O)O)cc1)=N2 [DHF]
- Vmax app for LcDHFR-TS [9, 13]: 2.0 ± 0.11 nmol/min/mL
- Km [9, 14]: 1 ± 0.2 µM
- Km [9, 15]: 1 µM
- Km [10]: 1.5 µM
- Km [11]: 1.6 µM

- IC50 [1]: 66300 ± 9010 nM
- inhibition at 50 µM ([1]; pH 4.7): 40 ± 1%
- inhibition at 50 µM ([2]; pH 7): 20 ± 2.4%
Molecule: CC(C)Cc1ccc(C(C)c2nc(N)nc(N)c2-c2ccccc2)cc1 (centres unmarked) [Compound 4]
